In the supplement of paper PMC13380429:

Legend:
HepG2 [1] = experiment: drug sensitivity score (DSS) for viability; higher = more toxic; extreme values may be limits of the assay; conditions: 72 h
Vero E6 [2] = experiment: as above; conditions: 72 h
Calu-3 [3] = experiment: as above; conditions: 72 h
U2OS [4] = experiment: as above; conditions: 72 h
Caco-2 [5] = experiment: as above; conditions: 72 h
[6] = tested on: A549-ACE2 infected with SARS-CoV-2; experiment: SARS-CoV-2 infection rate relative to DMSO; higher = more infection; conditions: 24 h
HepG2 [7] = experiment: cell viability relative to DMSO; higher = less toxic; conditions: 72 h
Vero E6 [8] = experiment: as above; conditions: 72 h
Calu-3 [9] = experiment: as above; conditions: 72 h
U2OS [10] = experiment: as above; conditions: 72 h
Caco-2 [11] = experiment: as above; conditions: 72 h
[12] = tested on: A549-ACE2 infected with SARS-CoV-2; experiment: morphology score (similarity to uninfected cells); higher = more like uninfected cells; conditions: 24 h
U2OS [13] = experiment: relative viability EC50 (midpoint between 100% and the lowest measured viability); higher = less toxic; conditions: 72 h
Caco-2 [14] = experiment: as above; conditions: 72 h
[15] = tested on: A549-ACE2 infected with SARS-CoV-2; experiment: cell count relative to DMSO; higher = less toxic; conditions: 24 h
A549-ACE2 = experiment: drug-induced phospholipidosis relative to tamoxifen; higher = more phospholipidosis
HepG2 [16] = experiment: relative viability EC50 (midpoint between 100% and the lowest measured viability); higher = less toxic; conditions: 72 h
Vero E6 [17] = experiment: as above; conditions: 72 h
Calu-3 [18] = experiment: as above; conditions: 72 h

O=C1NC(=O)C(c2cnc3ccccn23)=C1c1cn2c3c(cc(F)cc13)CN(C(=O)N1CCCCC1)CC2
Conditions	drug sensitivity score	relative viability EC50 [nM]
Caco-2 [5]	6.7	–
Caco-2 [14]	–	624
Calu-3 [3]	9.5	–
HepG2 [1]	3.2	–
U2OS [4]	1.3	–
U2OS [13]	–	> 10000
Vero E6 [2]	6.6	–

Conditions	SARS-CoV-2 infection rate, [6] [%]	cell count, [15] [%]	cell viability, Caco-2 [11] [%]	cell viability, Calu-3 [9] [%]	cell viability, HepG2 [7] [%]	cell viability, U2OS [10] [%]	cell viability, Vero E6 [8] [%]	morphology score, [12]
1 nM	–	–	104	101	121	108	105	–
10 nM	–	–	109	111	113	112	105	–
100 nM	–	–	87.3	80	109	99.5	95.9	–
0.3 µM	114	79	–	–	–	–	–	-0.23
1000 nM	–	–	70.5	68.1	94	94.2	66.1	–
3 µM	108	75	–	–	–	–	–	-0.14
10 µM	92	72	–	–	–	–	–	-0.05
10000 nM	–	–	47.3	61	56.7	80.3	77.9	–
30 µM	49	50	–	–	–	–	–	0.41

A549-ACE2, 24 h
Conditions	drug-induced phospholipidosis [%]
0.3 µM	-5.51
0.833333 µM	-3
3.33333 µM	-2.04
6.66667 µM	-0.59
10 µM	12.5

CCC(CC)COC(=O)[C@H](C)N[P@](=O)(OC[C@H]1O[C@@](C#N)(c2ccc3c(N)ncnn23)[C@H](O)[C@@H]1O)Oc1ccccc1 [Remdesivir]
Conditions	drug sensitivity score	relative viability EC50 [nM]
Caco-2 [5]	1.2	–
Calu-3 [3]	0.4	–
Calu-3 [18]	–	> 10000
HepG2 [1]	7.5	–
HepG2 [16]	–	1090
U2OS [4]	3.7	–
U2OS [13]	–	2620
Vero E6 [2]	0	–
Vero E6 [17]	–	> 10000

Conditions	SARS-CoV-2 infection rate [%]	cell count [%]	cell viability [%]	morphology score
Caco-2 [11], 1 nM	–	–	103	–
Caco-2 [11], 10 nM	–	–	101	–
Caco-2 [11], 100 nM	–	–	102	–
Caco-2 [11], 1000 nM	–	–	102	–
Caco-2 [11], 10000 nM	–	–	69.3	–
Calu-3 [9], 1 nM	–	–	90.6	–
Calu-3 [9], 10 nM	–	–	103	–
Calu-3 [9], 100 nM	–	–	88.7	–
Calu-3 [9], 1000 nM	–	–	97	–
Calu-3 [9], 10000 nM	–	–	81.1	–
HepG2 [7], 1 nM	–	–	101	–
HepG2 [7], 10 nM	–	–	95.5	–
HepG2 [7], 100 nM	–	–	105	–
HepG2 [7], 1000 nM	–	–	70.2	–
HepG2 [7], 10000 nM	–	–	33.7	–
U2OS [10], 1 nM	–	–	98	–
U2OS [10], 10 nM	–	–	100	–
U2OS [10], 100 nM	–	–	101	–
U2OS [10], 1000 nM	–	–	96.1	–
U2OS [10], 10000 nM	–	–	42.6	–
Vero E6 [8], 1 nM	–	–	97.2	–
Vero E6 [8], 10 nM	–	–	97.6	–
Vero E6 [8], 100 nM	–	–	99.7	–
Vero E6 [8], 1000 nM	–	–	99.3	–
Vero E6 [8], 10000 nM	–	–	109	–
[6], 0.008 µM	95	–	–	–
[6], 0.033 µM	83	–	–	–
[6], 0.1 µM	18	–	–	–
[6], 0.3 µM	11	–	–	–
[6], 1 µM	16	–	–	–
[6], 3 µM	9	–	–	–
[6], 10 µM	2	–	–	–
[6], 30 µM	2	–	–	–
[12], 0.008 µM	–	–	–	0.17
[12], 0.033 µM	–	–	–	0.61
[12], 0.1 µM	–	–	–	0.82
[12], 0.3 µM	–	–	–	0.95
[12], 1 µM	–	–	–	0.96
[12], 3 µM	–	–	–	0.97
[12], 10 µM	–	–	–	0.93
[12], 30 µM	–	–	–	0.93
[15], 0.008 µM	–	104	–	–
[15], 0.033 µM	–	114	–	–
[15], 0.1 µM	–	120	–	–
[15], 0.3 µM	–	126	–	–
[15], 1 µM	–	124	–	–
[15], 3 µM	–	116	–	–
[15], 10 µM	–	111	–	–
[15], 30 µM	–	105	–	–

drug-induced phospholipidosis [%], A549-ACE2
Conditions	0.3 µM	0.833333 µM	3.33333 µM	6.66667 µM	10 µM	30 µM
24 h	1.03	-4.55	5.63	18	30	47.1
48 h	4.23	-7.54	0.11	4.58	10.5	–
72 h	4.52	-8.77	-4.57	–	–	–
